The subject of one assay is SNU-1. Briefly: Gastric cancer cell proliferation inhibitory activity (CellTiter Glo), SNU-1. The format is cell-based. As to conditions: 72 hours, relative IC50. How it is done:
(§1) Experiments were performed using four types of gastric cancer cell lines (AGS, SNU-1, KATO-III, and MKN45) to measure the cell proliferation inhibitory ability of each Example compound. For AGS cells, 90 µL of cell suspension was dispensed into a 96-well plate using F-12K (Gibco) medium containing 10 % FBS, followed by incubation in a cell incubator at 37 °C and 5 % CO2. For SNU-1 and MKN45 cells, 90 µL of cell suspension was dispensed into a 96-well plate using RPMI1640 (Gibco) medium containing 10 % FBS, followed by incubation in a cell incubator at 37 °C and 5 % CO2. For KATO-III cells, 90 uL of cell suspension was dispensed into a 96-well plate using IMDM (Gibco) medium containing 10 % FBS, followed by incubation in a cell incubator at 37 °C and 5 % CO2. The next day, each Example compound dissolved and diluted in DMSO across 9 concentration ranges and a DMSO control group were added at 10 µL to each 96-well plate and treated for 72 hours. After completion of the compound treatment, 100 µL of CellTiter Glo (Promega) reagent was added to each well of the 96-well plate, followed by shaking for 10 minutes and standing at room temperature for 10 minutes. Luminescence signals were measured after inserting the 96-well plate into an Envision plate reader (PerkinElmer). Relative IC50 values were calculated by fitting a dose-response curve using XLfit (IDBS Ltd) software.
(§2) The gastric cancer cell proliferation inhibitory activities of the Example compounds measured by the method described above were evaluated according to the following criteria, and the results are presented in Table 16.

The test system of the next assay is MKN45 cells. As to the kind of experiment: Gastric cancer cell proliferation inhibitory activity (CellTiter Glo), MKN45. The format is cell-based. As to conditions: 72 hours, relative IC50. How it is done: as §1, §2
A further assay has as its system AGS cells. Briefly: Gastric cancer cell proliferation inhibitory activity (CellTiter Glo), AGS. The class given is cell-based. As to conditions: 72 hours, relative IC50. As for the experimental part:
as §1, §2

The test system of the next assay is KATO-III cells. As to the kind of experiment: Gastric cancer cell proliferation inhibitory activity (CellTiter Glo), KATO-III. As to conditions: 72 hours, relative IC50. The format is cell-based. How it is done:
as §1, §2

The next assay has as its system MDA-MB-436 cells. Briefly: Breast cancer cell proliferation inhibitory activity, MDA-MB-436. The format is cell-based. As to conditions: Homo sapiens, 72 hours, CellTiter Glo, relative IC50. How it is done:
(§3) Experiments were conducted using three types of breast cancer cell lines to measure the cell proliferation inhibitory ability of each Example compound. For HCC70 cells, 100 µL of cell suspension was dispensed into a 96-well plate using RPMI1640 (Invitrogen) medium containing 10 % FBS, followed by incubation in a cell incubator at 37 °C and 5 % CO2. For BT-20 cells, 100 µL of cell suspension was dispensed into a 96-well plate using EMEM (Invitrogen) medium containing 10 % FBS, followed by incubation in a cell incubator at 37 °C and 5 % CO2. For MDA-MB-436 cells, 100 µL of cell suspension was dispensed into a 96-well plate using L-15 (Invitrogen) medium containing 10 % FBS, followed by incubation in a cell incubator at 37 °C and 0 % CO2. The next day, each Example compound dissolved and diluted in DMSO across 9 concentration ranges and a DMSO control group were treated on the cells for 72 hours. After completion of the compound treatment, 100 µL of CellTiter Glo (Promega) reagent was added to each well of the 96-wellplate, followed by shaking for 10 minutes and standing at room temperature for 10 minutes. After inserting the 96-well plate into an Envision plate reader (PerkinElmer), luminescence signals were measured. Relative IC50 values were calculated by fitting a dose-response curve using XL fit (IDBS Ltd) software.
(§4) The breast cancer cell proliferation inhibitory activities of the Example compounds measured by the method described above were evaluated according to the following criteria, and the results are presented in Table 15.

For the next assay, the system named is BT-20 cells. Briefly: Breast cancer cell proliferation inhibitory activity, BT-20. The format is cell-based. As to conditions: Homo sapiens, 72 hours, CellTiter Glo, relative IC50. How it is done:
as §3, §4

Another assay has as its target CDK13 (Homo sapiens, UniProt Q14004). As to the kind of experiment: CDK13 kinase inhibitory activity assay (33P-ATP filter binding). The class given is biochemical. The procedure, abridged:
(§5)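 Compound in 9 concentrations pre-incubated 20 min with kinase and substrate, then ^33P-γ-ATP added and reacted 120 min at room temperature. Phosphorylated substrate captured on filter, washed with 0.75 % phosphoric acid and counted; activity as % of DMSO control, IC50 fitted.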

Assay [1] deals with MDA-MB-231 breast cancer cells. Briefly: Proliferation inhibitory activity assay against MDA-MB-231 breast cancer cells. The class given is cell-based. As to conditions: Homo sapiens, 72 hours, CellTiter Glo, relative IC50. The procedure, abridged: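 Cells grown in L-15 with 10% FBS at 37 °C, 0% CO2, then exposed next day to compounds at 9 concentrations (DMSO vehicle) for 72 h. Viability read by CellTiter Glo luminescence; relative IC50 from dose-response curve fit.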

The next assay deals with HCC70 cells. Briefly: Breast cancer cell proliferation inhibitory activity, HCC70. The class given is cell-based. As to conditions: Homo sapiens, 72 hours, CellTiter Glo, relative IC50. How it is done:
as §3, §4

Assay [2] deals with T1, CDK12 (Homo sapiens, UniProt Q9NYV4). Briefly: CDK12 kinase inhibitory activity assay (33P-ATP filter binding). The format is biochemical. As to conditions: kinase reaction 120 minutes, 33P-gamma-ATP; read-out: CDK12 IC50. The procedure, abridged: as §5
T1 sequence (Q9NYV4 whole entry, species assumed): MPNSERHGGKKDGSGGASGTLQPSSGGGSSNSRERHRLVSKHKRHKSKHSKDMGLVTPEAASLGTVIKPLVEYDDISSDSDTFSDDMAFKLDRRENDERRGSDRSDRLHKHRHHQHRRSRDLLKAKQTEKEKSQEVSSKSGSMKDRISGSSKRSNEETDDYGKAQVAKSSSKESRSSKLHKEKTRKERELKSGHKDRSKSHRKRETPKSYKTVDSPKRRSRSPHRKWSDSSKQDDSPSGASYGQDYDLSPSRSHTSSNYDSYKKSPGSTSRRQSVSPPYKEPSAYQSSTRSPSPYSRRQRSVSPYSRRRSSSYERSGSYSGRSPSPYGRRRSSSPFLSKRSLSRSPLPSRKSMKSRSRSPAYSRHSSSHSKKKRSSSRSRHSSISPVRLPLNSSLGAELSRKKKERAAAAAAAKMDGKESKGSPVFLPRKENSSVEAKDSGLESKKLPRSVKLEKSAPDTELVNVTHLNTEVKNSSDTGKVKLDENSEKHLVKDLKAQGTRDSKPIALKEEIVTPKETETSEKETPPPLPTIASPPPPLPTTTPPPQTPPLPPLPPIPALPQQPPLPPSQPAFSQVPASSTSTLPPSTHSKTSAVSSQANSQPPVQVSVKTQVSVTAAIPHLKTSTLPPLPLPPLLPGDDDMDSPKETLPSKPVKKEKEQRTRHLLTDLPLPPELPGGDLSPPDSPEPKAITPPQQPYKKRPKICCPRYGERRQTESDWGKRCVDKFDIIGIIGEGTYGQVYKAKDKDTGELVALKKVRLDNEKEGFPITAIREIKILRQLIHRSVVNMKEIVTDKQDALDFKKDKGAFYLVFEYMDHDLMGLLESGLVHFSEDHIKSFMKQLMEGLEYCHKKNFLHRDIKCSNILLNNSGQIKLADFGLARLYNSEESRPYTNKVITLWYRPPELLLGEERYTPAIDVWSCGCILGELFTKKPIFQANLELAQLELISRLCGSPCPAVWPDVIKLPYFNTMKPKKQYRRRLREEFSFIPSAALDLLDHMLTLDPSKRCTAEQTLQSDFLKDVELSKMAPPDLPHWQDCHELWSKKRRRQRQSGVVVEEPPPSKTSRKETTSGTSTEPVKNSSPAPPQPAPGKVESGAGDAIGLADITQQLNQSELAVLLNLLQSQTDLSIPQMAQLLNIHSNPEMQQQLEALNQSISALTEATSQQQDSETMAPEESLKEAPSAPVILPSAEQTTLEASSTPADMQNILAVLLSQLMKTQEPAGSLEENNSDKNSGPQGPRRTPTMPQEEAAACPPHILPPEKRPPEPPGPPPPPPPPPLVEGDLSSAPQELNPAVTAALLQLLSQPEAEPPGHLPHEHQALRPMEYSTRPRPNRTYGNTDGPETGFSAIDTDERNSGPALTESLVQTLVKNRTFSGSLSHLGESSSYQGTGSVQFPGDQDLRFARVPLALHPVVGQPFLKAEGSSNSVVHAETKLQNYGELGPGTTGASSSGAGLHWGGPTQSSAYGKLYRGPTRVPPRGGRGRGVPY
T1 sequence (O75909 whole entry partner, species assumed): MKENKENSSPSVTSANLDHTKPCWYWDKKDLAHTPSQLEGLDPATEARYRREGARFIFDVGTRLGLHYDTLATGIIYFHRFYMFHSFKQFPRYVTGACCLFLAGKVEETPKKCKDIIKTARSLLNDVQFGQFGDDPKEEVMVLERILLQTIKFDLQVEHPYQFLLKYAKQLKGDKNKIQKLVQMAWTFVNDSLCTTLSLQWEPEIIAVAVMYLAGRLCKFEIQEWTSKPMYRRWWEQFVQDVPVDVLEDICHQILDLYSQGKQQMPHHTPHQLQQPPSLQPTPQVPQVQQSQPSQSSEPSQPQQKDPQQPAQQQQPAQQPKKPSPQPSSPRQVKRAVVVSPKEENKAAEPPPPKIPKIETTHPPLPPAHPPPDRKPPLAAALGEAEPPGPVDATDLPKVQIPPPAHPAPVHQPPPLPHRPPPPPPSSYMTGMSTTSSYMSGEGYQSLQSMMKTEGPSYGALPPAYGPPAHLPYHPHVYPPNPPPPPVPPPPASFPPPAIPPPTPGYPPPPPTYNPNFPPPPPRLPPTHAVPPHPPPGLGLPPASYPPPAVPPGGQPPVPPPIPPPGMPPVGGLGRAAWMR
The target of a further assay is CDK1 (Homo sapiens, UniProt P06493). Briefly: CDK1 kinase inhibitory activity assay and selectivity over CDK12. The class given is biochemical. As to conditions: for IC50: kinase reaction 120 minutes, 33P-gamma-ATP; for CDK1/CDK12: ratio of CDK1 IC50 to CDK12 IC50. As for the experimental part:
(§6) Before initiating the CDK1 and CDK2 kinase reactions, each Example compound was dissolved and diluted in DMSO as a solvent across 9 concentration ranges at room temperature. The diluted solutions were then incubated with a mixture of kinase and substrate (and cofactors, if required) for 20 minutes. Next, radioisotope-labeled ATP (^33P-gamma-ATP) was added to proceed with the kinase reaction at room temperature for 120 minutes. After the reaction was completed, the reaction mixture was transferred to a filter paper that binds the radioisotope-labeled catalytic product (^33P-substrate). Unreacted ^33P-ATP was removed by washing with 0.75 % phosphoric acid, and then the radioactive phosphorylated substrate remaining on the filter paper was measured. Kinase activity data were expressed as a percentage of the kinase activity remaining in the test sample compared to a DMSO control group. The half-maximal inhibitory concentration (IC50) for each kinase was calculated using Prism software.
(§7) The CDK1 and CDK2 kinase inhibitory activities of the Example compounds measured by the above method were evaluated according to the following criteria, and the results are presented in Table 14.

The next assay addresses CDK2 (Homo sapiens, UniProt P24941). As to the kind of experiment: CDK2 kinase inhibitory activity assay and selectivity over CDK12. The format is biochemical. As to conditions: for IC50: kinase reaction 120 minutes, 33P-gamma-ATP; for CDK2/CDK12: ratio of CDK2 IC50 to CDK12 IC50. As for the experimental part:
as §6, §7

The target in assay [3] is T1, CDK12. As to the kind of experiment: Cellular CDK12 inhibitory activity assay (Ser2 phosphorylation of RNA polymerase II subunit B1 CTD in MDA-MB-231 cells). The class given is cell-based. As to conditions: MDA-MB-231 cells, 6 hours treatment; read-out: pRpbl CTD S2 IC50. Also noted: using MDA-MB-231 breast cancer cells; endogenous in cells; host or cells: MDA-MB-231. The procedure, abridged:
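MDA-MB-231 cells in L-15 with 10 % FBS were treated with compound at 9 concentrations for 6 h at 37 °C, 0 % CO2. In-Cell Western read phospho-Ser2 and total RNA polymerase II CTD on a Li-COR Odyssey; IC50 from 4-parameter dose-response fit.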

Where [4] appears, read: kinase reaction 120 minutes, 33P-gamma-ATP, read-out: CDK13 IC50.

Where two headings read alike, the source gives them in different places.

CDK13, sequence (Q14004 whole entry, species assumed): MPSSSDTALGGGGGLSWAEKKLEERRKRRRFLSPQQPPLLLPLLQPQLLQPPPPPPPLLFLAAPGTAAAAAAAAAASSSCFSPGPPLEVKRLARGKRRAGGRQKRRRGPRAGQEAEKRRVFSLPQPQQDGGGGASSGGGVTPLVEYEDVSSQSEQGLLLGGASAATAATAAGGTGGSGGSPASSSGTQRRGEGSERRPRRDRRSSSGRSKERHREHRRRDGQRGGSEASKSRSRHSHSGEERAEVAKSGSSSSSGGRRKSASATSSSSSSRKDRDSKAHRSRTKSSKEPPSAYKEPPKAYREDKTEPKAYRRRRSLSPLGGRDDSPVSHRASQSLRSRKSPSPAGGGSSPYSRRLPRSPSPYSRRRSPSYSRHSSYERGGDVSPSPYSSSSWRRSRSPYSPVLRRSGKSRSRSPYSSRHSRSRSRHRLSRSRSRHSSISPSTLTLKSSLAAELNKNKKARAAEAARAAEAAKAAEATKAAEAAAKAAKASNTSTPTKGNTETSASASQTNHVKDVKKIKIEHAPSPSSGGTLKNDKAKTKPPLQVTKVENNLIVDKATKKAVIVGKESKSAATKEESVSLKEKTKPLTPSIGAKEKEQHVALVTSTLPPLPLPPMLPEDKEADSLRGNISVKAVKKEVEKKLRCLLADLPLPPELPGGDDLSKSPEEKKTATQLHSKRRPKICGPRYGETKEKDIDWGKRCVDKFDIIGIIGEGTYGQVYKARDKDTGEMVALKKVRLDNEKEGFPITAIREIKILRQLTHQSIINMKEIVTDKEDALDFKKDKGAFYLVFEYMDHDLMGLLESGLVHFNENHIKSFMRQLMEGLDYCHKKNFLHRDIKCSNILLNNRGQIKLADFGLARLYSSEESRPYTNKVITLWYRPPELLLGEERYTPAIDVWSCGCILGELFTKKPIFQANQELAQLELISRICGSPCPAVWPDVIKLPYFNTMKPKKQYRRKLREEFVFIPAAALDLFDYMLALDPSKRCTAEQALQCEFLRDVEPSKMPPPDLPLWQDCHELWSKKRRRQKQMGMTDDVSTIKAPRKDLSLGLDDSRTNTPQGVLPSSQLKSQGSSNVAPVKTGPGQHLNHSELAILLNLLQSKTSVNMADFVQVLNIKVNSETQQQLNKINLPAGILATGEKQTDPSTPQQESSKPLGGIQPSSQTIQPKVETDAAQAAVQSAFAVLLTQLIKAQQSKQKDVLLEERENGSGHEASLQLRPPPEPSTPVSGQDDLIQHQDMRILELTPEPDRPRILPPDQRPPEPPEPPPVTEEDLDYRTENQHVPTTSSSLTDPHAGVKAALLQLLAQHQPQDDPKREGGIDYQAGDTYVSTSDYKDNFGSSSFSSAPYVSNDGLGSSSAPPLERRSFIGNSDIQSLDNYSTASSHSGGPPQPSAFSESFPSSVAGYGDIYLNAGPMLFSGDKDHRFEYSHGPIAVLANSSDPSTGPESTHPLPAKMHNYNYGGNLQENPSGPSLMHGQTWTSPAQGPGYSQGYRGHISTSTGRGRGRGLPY
CDK13, sequence (O75909 whole entry partner, species assumed): as the sequence (O75909 whole entry partner, species assumed) above
CDK1, sequence (P06493 whole entry, species assumed): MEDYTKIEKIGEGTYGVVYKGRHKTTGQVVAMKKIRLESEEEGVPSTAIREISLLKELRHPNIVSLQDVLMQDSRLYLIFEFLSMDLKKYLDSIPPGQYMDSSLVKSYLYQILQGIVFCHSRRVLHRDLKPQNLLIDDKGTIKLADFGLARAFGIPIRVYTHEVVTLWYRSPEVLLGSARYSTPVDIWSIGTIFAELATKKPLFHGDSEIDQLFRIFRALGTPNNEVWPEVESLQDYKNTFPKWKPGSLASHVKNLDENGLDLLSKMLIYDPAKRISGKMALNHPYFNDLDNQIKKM
CDK1, sequence (P14635 whole entry partner, species assumed): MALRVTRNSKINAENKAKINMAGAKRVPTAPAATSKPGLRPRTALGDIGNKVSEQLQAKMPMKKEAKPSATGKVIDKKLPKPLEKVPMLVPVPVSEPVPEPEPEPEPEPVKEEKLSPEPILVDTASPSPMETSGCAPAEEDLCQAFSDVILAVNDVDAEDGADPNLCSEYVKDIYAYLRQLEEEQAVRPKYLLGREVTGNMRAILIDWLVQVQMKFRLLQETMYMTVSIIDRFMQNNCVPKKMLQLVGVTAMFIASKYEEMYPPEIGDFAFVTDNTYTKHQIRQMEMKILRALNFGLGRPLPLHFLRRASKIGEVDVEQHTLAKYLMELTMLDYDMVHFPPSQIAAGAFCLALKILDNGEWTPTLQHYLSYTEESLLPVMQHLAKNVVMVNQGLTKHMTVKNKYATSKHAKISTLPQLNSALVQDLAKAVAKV

Turning to `N.N.[Cl][Pt][Cl]` [Cisplatin, reference compound], the IC50 with SNU-1, in the assay on MKN45 cells, with AGS cells and in the assay on KATO-III cells was > 1000 nM throughout.

In the case of `Cn1cc(-n2cnc3c(NCc4nc5cc(Cl)c(Cl)cc5[nH]4)nc(N4CCOCC4)nc32)cn1` [SR-4835, reference compound], the 50% inhibitory concentration (IC50) in the assay with MDA-MB-436 cells lay in the range of 50 to 1000 nM; with BT-20 cells it was 50 to 1000 nM; at CDK13 (setting [4]) it was 100 to 500 nM; in [1], 50 to 500 nM; with HCC70 cells it was 50 to 1000 nM.

For the compound `OC1CCN(c2cc(NCc3nc4ccc(F)c(F)c4[nH]3)c3ncc(C(F)(F)F)n3n2)CC1` [Example 19, 1-(8-(((6,7-difluoro-1H-benzo[d]imidazol-2-yl)methyl)amino)-3-(trifluoromethyl)imidazo[1,2-b]pyridazin-6-yl)piperidin-4-ol], the half-maximal inhibitory concentration (IC50) at CDK12 [2] was < 100 nM; at CDK13 it was < 100 nM; against CDK1, > 1000 nM; in [1] it was ≤ 50 nM; against CDK2, > 1000 nM; at CDK12 [3] it was 300 to 3000 nM. The CDK1/CDK12 result at CDK1 is listed as “A (CDK1/CDK12 or CDK2/CDK12 > 500-fold)”. The CDK2/CDK12 entry at CDK2 is “A (CDK1/CDK12 or CDK2/CDK12 > 500-fold)”.

Take `CN1CC2CCC(C1)N2c1cc(NCc2nc3ccc(F)c(F)c3[nH]2)c2ncc(C(F)(F)F)n2n1` [Example 13]: the concentration for half-maximal inhibition (IC50) at CDK12 [2] is < 100 nM; on CDK13 (setting [4]), < 100 nM; at CDK1, > 1000 nM; in assay [1], ≤ 50 nM; on CDK2, > 1000 nM; at CDK12 [3], < 300 nM. Further, on CDK1, the CDK1/CDK12 entry was “A (CDK1/CDK12 or CDK2/CDK12 > 500-fold)”. Besides, the CDK2/CDK12 entry on CDK2 was “B (100-fold < CDK1/CDK12 or CDK2/CDK12 ≤ 500-fold)”.

Take `Fc1ccc2nc(CNc3cc(N4C5CCC4COC5)nn4c(C(F)(F)F)cnc34)[nH]c2c1F` [Example 7, 6-(3-oxa-8-azabicyclo[3.2.1]octan-8-yl)-N-((6,7-difluoro-1H-benzo[d]imidazol-2-yl)methyl)-3-(trifluoromethyl)imidazo[1,2-b]pyridazin-8-amine]: the concentration for half-maximal inhibition (IC50) on CDK12 [2] is 100 to 500 nM; at CDK13, < 100 nM; against CDK1 it was > 1000 nM; in assay [1], ≤ 50 nM; on CDK2, > 1000 nM; on CDK12 [3], < 300 nM. For the same compound, the CDK1/CDK12 result at CDK1 is on record as “C (CDK1/CDK12 or CDK2/CDK12 ≤ 100-fold)”. Besides, the CDK2/CDK12 entry on CDK2 is on record as “C (CDK1/CDK12 or CDK2/CDK12 ≤ 100-fold)”.

Turning to `FC(F)(F)c1cnc2c(NCc3nc4cc(Cl)c(Cl)cc4[nH]3)cc(N3CCOCC3)nn12` [Example 68, N-((5,6-dichloro-1H-benzo[d]imidazol-2-yl)methyl)-6-morpholino-3-(trifluoromethyl)imidazo[1,2-b]pyridazin-8-amine], the 50% inhibitory concentration (IC50) is 100 to 500 nM at CDK12 [2]; < 100 nM on CDK13 (setting [4]); > 1000 nM against CDK1; ≤ 50 nM in assay [1]; > 1000 nM at CDK2; < 300 nM on CDK12 [3]. The CDK1/CDK12 result on CDK1 is recorded as “C (CDK1/CDK12 or CDK2/CDK12 ≤ 100-fold)”. Further, at CDK2, the CDK2/CDK12 result was “C (CDK1/CDK12 or CDK2/CDK12 ≤ 100-fold)”.

For the compound `O=C(c1cc(Cc2n[nH]c(=O)c3ccccc23)ccc1F)N1CCN(C(=O)C2CC2)CC1` [Olaparib, reference compound], the concentration for half-maximal inhibition (IC50) in the assay on MDA-MB-436 cells, in the assay on BT-20 cells and in the assay on HCC70 cells was > 1000 nM each time.

For `Nc1ncc(-c2cc(NCc3nc4ccc(F)c(F)c4[nH]3)c3ncc(C(F)(F)F)n3n2)cn1` [Example 35], the IC50 was < 100 nM on CDK12 [2]; < 100 nM at CDK13 (setting [4]); > 1000 nM on CDK1; ≤ 50 nM in assay [1]; > 1000 nM at CDK2; < 300 nM on CDK12 [3]. The CDK1/CDK12 entry at CDK1 is given as “A (CDK1/CDK12 or CDK2/CDK12 > 500-fold)”. Also, on CDK2, the CDK2/CDK12 result is recorded as “B (100-fold < CDK1/CDK12 or CDK2/CDK12 ≤ 500-fold)”.

Regarding `CC(=O)c1c(C)c2cnc(Nc3ccc(N4CCNCC4)cn3)nc2n(C2CCCC2)c1=O` [Palbociclib, reference compound], the IC50 in the assay on BT-20 cells and in the assay with HCC70 cells was > 1000 nM each time.

With `O=C(CO)NC1CCN(c2cc(NCc3nc4cc(Cl)c(Cl)cc4[nH]3)c3ncc(C(F)(F)F)n3n2)CC1` [Example 115, N-(1-(8-(((5,6-dichloro-1H-benzo[d]imidazol-2-yl)methyl)amino)-3-(trifluoromethyl)imidazo[1,2-b]pyridazin-6-yl)piperidin-4-yl)-2-hydroxyacetamide], the half-maximal inhibitory concentration (IC50) at CDK12 [2] was < 100 nM; on CDK13 it was < 100 nM; at CDK1, > 1000 nM; in assay [1] it was ≤ 50 nM; on CDK2 it was > 1000 nM; at CDK12 [3] it was < 300 nM. Moreover, the CDK1/CDK12 entry at CDK1 was “B (100-fold < CDK1/CDK12 or CDK2/CDK12 ≤ 500-fold)”. At CDK2, the CDK2/CDK12 entry is recorded as “B (100-fold < CDK1/CDK12 or CDK2/CDK12 ≤ 500-fold)”.
